The EC50 is the concentration needed to bring the measured effect to its halfway point.

One series concerns AMO-1 cells. In words: Antiproliferation assay (CellTiter-Glo, 72 h), AMO-1. Format: cell-based. Conditions: IC50, median, AMO-1, 72 h, read-out: Antiproli AMO-1 [M] median. The method, then:
Assessment of the Anti-Proliferative Effect of Compounds in Different Cell Lines
The impact of compounds on the proliferation of different cell lines was assessed using the CellTiter-Glo® Luminescent Cell Viability reagent from Promega (G7573).
In parallel, cells were plated in a reference (day 0) plate for time zero determination.
Rim wells were excluded. The cells were incubated for 72 h hours in a humidified incubator at 37° C. The day 0 plate was measured by adding 30 μL/well of CTG solution (CellTiter-Glo® Luminescent Cell Viability reagent, Promega G7573) to time zero wells in the reference plate followed by a 10 minutes incubation and luminescence reading at 0.1 ms. using the PHERAstar FS microplate reader (BMG Labtech).
After 72 h incubation, the treated plates were measured in the same way as the day 0 plate mentioned above.
(In general: In ATP-based viability assays light output follows the ATP content of the culture.)

Series [1] relates to SUDHL5 cells. In words: Induction of caspase-3/7 activity (Caspase-Glo 3/7), SUDHL5. The conditions noted are these: EC50, median, SUDHL5, 3 h treatment. The class given is cell-based. The method, then: (§1) Induction of Caspase-3/7 Activity Upon Treatment of Cells with Selected Compounds
(§2) The BH3-domain of MCL-1 sequesters pro-apoptotic proteins, thereby inhibiting apoptosis. In contrast, MCL-1 inhibitors are expected to antagonize this effect leading to an increase in apoptosis, which can be determined by measuring the activity of caspase-3/7.
(§3) The activity of caspase-3/7 was determined in DLBCL (Diffuse large B-cell lymphoma) cell lines (SUDHL5 and SUDHL10) upon treatment with different compounds, using the Caspase-Glo® 3/7 reagent from Promega (G8092).
(§4) Rim wells were excluded. The cells were incubated for 3 h hours in a humidified incubator at 37° C.
(§5) For the evaluation of the results, the background measured with “medium-only” was subtracted from all other values.

Series [2] deals with SUDHL5 cells. In words: Induction of cytotoxicity (CellTiter-Glo, 5 h), SUDHL5. Conditions: SUDHL5, 5 h.
Series [3] deals with SUDHL10 cells. In words: Induction of cytotoxicity (CellTiter-Glo, 5 h), SUDHL10. The conditions noted are these: read-out: Cytotox SUDHL10 [M] (median); IC50, median; SUDHL10, 5 h.
Series [4] deals with SUDHL10 cells. In words: Induction of caspase-3/7 activity (Caspase-Glo 3/7), SUDHL10. Format: cell-based. Conditions: EC50, median; SUDHL10, 3 h treatment. The method, then: as §1, §2, §3, §4, §5
Where [5] appears, read: Homo sapiens, SU-DHL-5, 5 h, read-out: Cytotox SUDHL5 [M] (median), IC50, median.
Where [6] appears, read: read-out: Cytotox SUDHL5 [M] (median), IC50, median.

Where a name gives a salt, the structure may show the parent alone. Read-outs that look alike come from different tables or passages of the source.

In the case of `Cc1nn(C)c2c1-c1c(Cl)ccc3c(CCCOc4cccc5ccccc45)c(C(=O)O)n(c13)CCCCOC2` (racemic) [Example 2, rac-4-chloro-1,3-dimethyl-7-[3-(naphthalen-1-yloxy)propyl]-1,10,11,12,13,15-hexahydropyrazolo[4′,3′:9,10][1,6]oxazacycloundecino[8,7,6-hi]indole-8-carboxylic acid], the IC50 with AMO-1 cells (Homo sapiens, AMO1, 72 h) came to 4.9e-06 M.

On to `CCc1c2c(nn1C)CN(C)CCCCn1c(C(=O)O)c(CCCOc3cccc4cc(F)ccc34)c3ccc(Cl)c-2c31` (racemic) [Example 5, (rac)-4-chloro-3-ethyl-7-{3-[(6-fluoronaphthalen-1-yl)oxy]propyl}-2,14-dimethyl-10,11,12,13,14,15-hexahydro-2H-pyrazolo[3′,4′:8,9][1,6]diazacycloundecino[10,11,1-hi]indole-8-carboxylic acid], for which the IC50 with AMO-1 cells (Homo sapiens, AMO1, 72 h) worked out at 6.1e-07 M. Turning to `Cc1c2c(nn1C)COCCCCn1c(C(=O)O)c(CCCOc3cccc4cc(F)ccc34)c3ccc(Cl)c-2c31` (racemic) [Example 14, (rac)-4-chloro-7-{3-[(6-fluoronaphthalen-1-yl)oxy]propyl}-2,3-dimethyl-2,10,11,12,13,15-hexahydropyrazolo[4′,3′:9,10][1,6]oxazacycloundecino[8,7,6-hi]indole-8-carboxylic acid], in the series on AMO-1 cells (Homo sapiens, AMO1, 72 h), the IC50 was 7.4e-07 M. For `CCc1c2c(nn1C)CN(C)CCCCn1c(C(=O)O)c(CCCOc3cccc4ccccc34)c3ccc(Cl)c-2c31` (racemic) [Example 22, (rac)-4-chloro-3-ethyl-2,14-dimethyl-7-[3-(naphthalen-1-yloxy)propyl]-10,11,12,13,14,15-hexa-hydro-2H-pyrazolo[3′,4′:8,9][1,6]diazacycloundecino[10,11,1-hi]indole-8-carboxylic acid], in the series on AMO-1 cells (Homo sapiens, AMO1, 72 h), the IC50 amounted to 6.6e-07 M. Take `CCc1c2c(nn1C)COCCCCn1c(C(=O)O)c(CCCOc3cccc4cc(F)ccc34)c3ccc(Cl)c-2c31` (racemic) [Example 36, (rac)-4-chloro-3-ethyl-7-{3-[(6-fluoronaphthalen-1-yl)oxy]propyl}-2-methyl-2,10,11,12,13,15-hexahydropyrazolo[4′,3′:9,10][1,6]oxazacycloundecino[8,7,6-hi]indole-8-carboxylic acid]: the IC50 with AMO-1 cells (Homo sapiens, AMO1, 72 h) amounted to 2.9e-07 M. With `CCc1c2c(nn1C)CCCCCCn1c(C(=O)O)c(CCCOc3cccc4cc(F)ccc34)c3ccc(Cl)c-2c31` (racemic) [Example 54, (rac)-4-chloro-3-ethyl-7-{3-[(6-fluoronaphthalen-1-yl)oxy]propyl}-2-methyl-10,11,12,13,14,15-hexahydro-2H-pyrazolo[4′,3′:4,5]azacycloundecino[3,2,1-hi]indole-8-carboxylic acid], the EC50 in the series on SUDHL5 cells [1] (Homo sapiens, SU-DHL-5, 3 h) is 3.5 µM. Compound `Cc1c2c(nn1C)COCC(F)(F)CCn1c(C(=O)O)c(CCCOc3cccc4cc(F)ccc34)c3ccc(Cl)c-2c31` (racemic) [Example 90, (rac)-4-Chloro-12,12-difluoro-7-{3-[(6-fluoronaphthalen-1-yl)oxy]propyl}-2,3-dimethyl-2,10,11,12,13,15-hexahydropyrazolo[4′,3′:9,10][1,6]oxazacycloundecino[8,7,6-hi]indole-8-carboxylic acid] displayed an EC50 in the series on SUDHL5 cells [1] (Homo sapiens, SU-DHL-5, 3 h) of 8.5 µM. In addition, the IC50 turned out to be 4.9e-06 M with AMO-1 cells (Homo sapiens, AMO1, 72 h) and 9.9e-06 M with SUDHL5 cells [2] (setting [5]). For `CCc1nn(CCN2CCOCC2)c2c1-c1c(Cl)ccc3c(CCCOc4cccc5ccccc45)c(C(=O)O)n(c13)C/C=C\CN(C)C2` (single isomer, unassigned; enantiomer 1) [Example 43, (11Z)-4-chloro-3-ethyl-14-methyl-1-[2-(morpholin-4-yl)ethyl]-7-{3-[(naphthalen-1-yl)oxy]propyl}-10,13,14,15-tetrahydro-1H-pyrazolo[3′,4′:8,9][1,6]diazacycloundecino[10,11,1-hi]indole-8-carboxylic acid-ammonia salt (Enantiomer 1)], the IC50 with SUDHL5 cells [2] (setting [5]) is 6e-07 M. Turning to `CCc1nn(CCN2CCOCC2)c2c1-c1c(Cl)ccc3c(CCCOc4cccc5ccccc45)c(C(=O)O)n(c13)CCCCN(C)C2` (single isomer, unassigned; enantiomer 1) [Example 46, 4-chloro-3-ethyl-14-methyl-1-[2-(morpholin-4-yl)ethyl]-7-{3-[(naphthalen-1-yl)oxy]propyl}-10,11,12,13,14,15-hexahydro-1H-pyrazolo[3′,4′:8,9][1,6]diazacycloundecino[10,11,1-hi]indole-8-carboxylic acid (Enantiomer 1)], the IC50 with AMO-1 cells (Homo sapiens, AMO1, 72 h) was found to be 5.9e-07 M; in the series with SUDHL5 cells [2] (setting [6]) it was 4e-07 M. `CCc1c2c(nn1C)CCCCCCn1c(C(=O)O)c(CCCOc3cccc4ccccc34)c3ccc(Cl)c-2c31` (single isomer, unassigned; enantiomer 1) [Example 52, (+)-4-chloro-3-ethyl-2-methyl-7-{3-[(naphthalen-1-yl)oxy]propyl}-10,11,12,13,14,15-hexahydro-2H-pyrazolo[4′,3′:4,5]azacycloundecino[3,2,1-hi]indole-8-carboxylic acid-N-ethylethanamine salt—Enantiomer 1]: the response with SUDHL5 cells [1] (Homo sapiens, SU-DHL-5, 3 h) was half-maximal at 0.8 µM (EC50). The IC50 in the series on AMO-1 cells (Homo sapiens, AMO1, 72 h) worked out at 2.2e-06 M; with SUDHL10 cells [3], 2e-06 M. Consider `CCc1c2c(nn1C)CN(CCOC)CCCCn1c(C(=O)O)c(CCCOc3cccc4cc(F)ccc34)c3ccc(Cl)c-2c31` (single isomer, unassigned; enantiomer 1) [Example 132, 4-chloro-3-ethyl-7-{3-[(6-fluoronaphthalen-1-yl)oxy]propyl}-14-(2-methoxyethyl)-2-methyl-10,11,12,13,14,15-hexahydro-2H-pyrazolo[3′,4′:8,9][1,6]diazacycloundecino[10,11,1-hi]indole-8-carboxylic acid (Enantiomer 1)], for which, in the series with SUDHL5 cells [1] (Homo sapiens, SU-DHL-5, 3 h), the EC50 turned out to be 9.3 µM. The IC50 in the series on SUDHL5 cells [2] (setting [5]) worked out at 8.2e-06 M.

In the case of `CCc1c2c(nn1C)CN(C)CCCCn1c(C(=O)O)c(CCCOc3cccc4cc(F)ccc34)c3ccc(Cl)c-2c31` (single isomer, unassigned; enantiomer 2) [Example 7, 4-chloro-3-ethyl-7-{3-[(6-fluoronaphthalen-1-yl)oxy]propyl}-2,14-dimethyl-10,11,12,13,14,15-hexahydro-2H-pyrazolo[3′,4′:8,9][1,6]diazacycloundecino[10,11,1-hi]indole-8-carboxylic acid (Enantiomer 2)], in the series with SUDHL5 cells [1] (Homo sapiens, SU-DHL-5, 3 h), the EC50 is 8 µM. Moreover, the results for the IC50 with AMO-1 cells, in the series on SUDHL5 cells [2] (setting [6]) and with SUDHL10 cells [3] were 6.6e-06 M, 6.1e-06 M and 9.3e-06 M, respectively. For `CCc1c2c(nn1C)CN(C)CCCCn1c(C(=O)O)c(CCCOc3cccc4ccccc34)c3ccc(Cl)c-2c31` (single isomer, unassigned; enantiomer 2) [Example 24, 4-chloro-3-ethyl-2,14-dimethyl-7-[3-(naphthalen-1-yloxy)propyl]-10,11,12,13,14,15-hexahydro-2H-pyrazolo[3′,4′:8,9][1,6]diazacycloundecino[10,11,1-hi]indole-8-carboxylic acid (Enantiomer 2)], in the series on SUDHL5 cells [1] (Homo sapiens, SU-DHL-5, 3 h), the midpoint of the response, the EC50, lay at 4.5 µM. Compound `CCc1c2c(nn1C)COCCCCn1c(C(=O)O)c(CCCOc3cccc4cc(F)ccc34)c3ccc(Cl)c-2c31` (single isomer, unassigned; enantiomer 2) [Example 38, (−)-4-chloro-3-ethyl-7-{3-[(6-fluoronaphthalen-1-yl)oxy]propyl}-2-methyl-2,10,11,12,13,15-hexahydropyrazolo[4′,3′:9,10][1,6]oxazacycloundecino[8,7,6-hi]indole-8-carboxylic acid-N-ethylethanamine salt (Enantiomer 2)] yielded an EC50 in the series on SUDHL5 cells [1] (Homo sapiens, SU-DHL-5, 3 h) of 5.4 µM. Regarding `Cc1c2c(nn1C)COCC(F)(F)CCn1c(C(=O)O)c(CCCOc3cccc4ccccc34)c3ccc(Cl)c-2c31` (single isomer, unassigned; enantiomer 2) [Example 57, 4-chloro-12,12-difluoro-2,3-dimethyl-7-{3-[(naphthalen-1-yl)oxy]propyl}-2,10,11,12,13,15-hexahydropyrazolo[4′,3′:9,10][1,6]oxazacycloundecino[8,7,6-hi]indole-8-carboxylic acid-N-ethylethanamine salt—Enantiomer 2], the figures for the EC50 in the series with SUDHL5 cells [1] and in the series with SUDHL10 cells [4] were 3.2 µM and 8 µM, respectively. In addition, the results for the IC50 in the series with AMO-1 cells and in the series on SUDHL5 cells [2] (setting [6]) were 7.6e-06 M and 4.9e-06 M, respectively. As for `Cc1c2c(nn1C)COCC1CCC1Cn1c(C(=O)O)c(CCCOc3cccc4ccccc34)c3ccc(Cl)c-2c31` (single isomer, unassigned; stereoisomer 1) [Example 63], the midpoint of the response with SUDHL5 cells [1], the EC50, lay at 9 µM.

The values are drawn from patent US11478451B1, “Macrocyclic chlorine substituted indole derivatives” (Bayer Aktiengesellschaft, priority 2017, dated 2022).
